Read-outs that look alike come from different tables or passages of the source.
How the values were obtained:
[1] = tested on: P. falciparum NF54; test: In vitro microplate assay against P. falciparum NF54 (3H-hypoxanthine incorporation, erythrocytic stages); format: cell-based, Plasmodium falciparum; details: average of four determinations, read-out: P.f. NF54 IC50
Protocol: (§1) All newly synthesized compounds were tested for their antiplasmodial activity against the chloroquine-sensitive strain Plasmodium falciparum NF54. Cytotoxicity was determined using rat skeletal myofibroblasts (L-6 cells). As standards chloroquine and podophyllotoxin were used.
In vitro activity against erythrocytic stages of P. falciparum was determined with a ^3H-hypoxanthine incorporation assay, using the chloroquine sensitive NF54 strain [44]. Chloroquine (Sigma C6628) was used as standard. Test compounds were dissolved in DMSO at 10 mg/mL and added to parasite cultures incubated in RPMI 1640 medium without hypoxanthine, supplemented with HEPES (5.94 g/L, NaHCO3 (2.1 g/L), neomycin (100 U/mL), Albumax (5 g/L) and washed human red blood cells A^+ at 2.5% hematocrit (0.3% parasitemia). Serial drug dilutions of 11 3-fold dilution steps (covering a range from 100–0.002 µg/mL) were prepared. The 96-well plates were incubated at a humidified atmosphere at 37 °C; 4% CO2, 3% O2, 93% N2. After 48 h, 0.05 mL of ^3H-hypoxanthine (=0.5 µCi) was added to each well. The plates were incubated for another 24 h under the same conditions. Then, the plates were harvested with a Betaplate cell harvester (Wallac, Zurich, Switzerland). The red blood cells were transferred onto glass fiber filter and washed with distilled water. The dried filters were inserted into a plastic foil with 10 mL of scintillation fluid and counted in a Betaplate liquid scintillation counter. IC50 values were determined from sigmoidal inhibition curves by linear regression using Microsoft Excel. Chloroquine was used as control.

[2] = In vitro cytotoxicity with L-6 cells (Alamar Blue); format: cell-based, rat; details: rat, Cytotoxicity L-6 Cells IC50
Protocol: as §1
(§2) In vitro cytotoxicity was determined using a primary cell line of rat skeletal myofibroblasts. The assay was performed in 96-well microtiter plates, each well containing 0.1 mL of RPMI 1640 medium, supplemented with 0.1% L-glutamine (200 mM) and 10% fetal bovine serum, as well as 4000 L-6 cells. Serial drug dilutions of 11 3-fold dilution steps (covering a range from 100–0.002 µg/mL) were prepared. After 70 h of incubation time, the plates were inspected under an inverted microscope to ensure sterile conditions and growth of the controls. […] Podophyllotoxin (Sigma P4405) was used as control.

[3] = Parallel artificial membrane permeability assay (PAMPA); details: pH 7.4
Protocol: The PAMPA was performed using a Corning Gentest Pre-coated PAMPA Plate System at a pH of 7.4. It consists of 96-well polystyrene plates, whereas the donor-plate (bottom plate) is a conventional 96-well microtiter plate. The base of the acceptor-plate (top plate) consists of a porous membrane. The pores are lined with a lipid-oil-lipid trilayer. Stock solutions (10 mM) of each test compound were prepared in DMSO or MeOH and then further diluted to a final concentration of 200 µM with phosphate-buffered saline (PBS) at a pH of 7.4. Compound solutions were then added to the wells of the donor plate and pure PBS was added to each well of the acceptor plate. Compounds and negative control (pure PBS) were tested in quadruplicates. Donor and acceptor plate were coupled and incubated at ambient temperature for 5 h. After that, the plates were separated and solutions from each well of both plates were transferred onto 96-well UV-Star Microplates (Greiner Bio-One). The UV-absorption was measured at different wavelengths (between 200 and 300 nm) by a SpectraMax M3 UV plate reader (Molecular Devices). The concentrations were received from a calibration curve for each substance. The plates were analyzed at a wavelength were the R^2 value of the calibration curve was higher than 0.99 [48]. […] (2) cequ=cDt* VD+cAt* VA/VD+VA where: • cD(t)—compound concentration in donor well at time t.
Recovery of compounds from donor and acceptor wells (mass retention) was calculated as shown in the equation below. Data were only accepted when recovery exceeded 70%. (3) R=1−cDt∗ VD+cAt∗ VA/c0∗ VD where: • R—mass retention (%); • cA(t)—compound concentration in acceptor well at time t; • cD(t)—compound concentration in donor well at time t; • c0—initial compound concentration in donor well; • VD—donor well volume; • VA—acceptor well volume.

[4] = molecular target: T1, CYP3A4 (Homo sapiens, UniProt P08684); test: Cytochrom P450 3A4 inhibition assay (P450-Glo, luciferin-IPA); format: in vitro ADME; details: recombinant human CYP3A4 Supersomes (+ oxidoreductase + b5), probe luciferin-IPA, stock solutions diluted to 20 µM, pH 7.4, triplicate
T1 construct: purchased Corning, Glendale, AZ, USA
Protocol: The CYP3A4 inhibition assay was performed using 96-well White Plates (Greiner Bio-One) at a pH of 7.4. […] Stock solutions were further diluted to a final concentration of 20 µM using water (HPLC grade). The luciferin IPA stock solution (3 mM) was diluted to a final concentration of 0.3 mM using water (HPLC grade). The CYP3A4 reaction mixture was prepared by mixing water (HPLC grade) with potassium phosphate buffer (1 M), luciferin IPA (0.3 mM) and CYP3A4 membrane (1 pmol/µL). The control reaction mixture was prepared using water (HPLC grade), potassium phosphate buffer (1 M), luciferin IPA (0.3 mM) and membrane without CYP activity (1 pmol/µL). Solutions A and B of the NADPH regeneration system were mixed and HPLC grade water was added. The reconstituted luciferin detection reagent was prepared by mixing the reconstituted buffer with esterase with the luciferin detection reagent. Then, solutions of test compounds and standard were added to the wells of the 96-well White Plate, each was tested in triplicate. The CYP3A4 reaction mixture was added to each well and the plate was incubated for 10 min at room temperature. After that, the NADPH regeneration system was added, inducing the reaction followed by an incubation time of 10 min at ambient temperature. By adding the reconstituted luciferin detection reagent, the reaction was terminated, and a luminescent signal was formed. Luminescence was measured by a SpectraMax M3 UV plate reader (Molecular Devices). The relative light units (RLU) were received from a calibration curve with beetle luciferin. […] The CYP3A4 inhibition (%) was calculated from the RLU.

[5] = tested on: P. falciparum 3D7-A10; set-up: method as in PMID 31813848, PMID 32682267; details: erythrocytic cycle of 40 h, different drug concentrations; cited from earlier work
[6] = tested on: P. falciparum; details: long-term in vitro, sub-lethal doses, cited from earlier work
[7] = tested on: L-6 cells; test: In vitro cytotoxicity with L-6 cells (Alamar Blue); format: cell-based, rat; details: rat, 72 h
Protocol: as §1, §2

[8] = Plasmodium falciparum, NF54, chloroquine-sensitive strain NF54, blood stages
[9] = chloroquine-sensitive strain NF54, blood stages

T1 sequence (P08684 2-503 limits assumed): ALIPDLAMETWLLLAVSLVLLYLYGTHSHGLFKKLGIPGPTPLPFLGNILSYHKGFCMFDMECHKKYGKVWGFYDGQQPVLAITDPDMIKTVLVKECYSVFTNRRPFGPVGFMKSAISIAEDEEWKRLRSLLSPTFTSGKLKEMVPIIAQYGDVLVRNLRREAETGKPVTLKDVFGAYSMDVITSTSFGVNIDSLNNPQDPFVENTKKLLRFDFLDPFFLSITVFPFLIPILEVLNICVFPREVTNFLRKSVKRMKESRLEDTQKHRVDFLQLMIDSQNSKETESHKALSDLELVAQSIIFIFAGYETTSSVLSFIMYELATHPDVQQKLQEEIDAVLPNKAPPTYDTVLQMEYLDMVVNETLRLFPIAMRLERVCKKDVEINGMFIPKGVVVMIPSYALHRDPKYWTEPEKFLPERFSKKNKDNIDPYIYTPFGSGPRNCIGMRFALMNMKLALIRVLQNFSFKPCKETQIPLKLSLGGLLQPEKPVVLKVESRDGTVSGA

| Structure (SMILES) | IC50 [1, 8] | Papp at 5 h, 200 µM [3] | inhibition at 10 min, 20 µM [4] | IC50 [1, 9] | melting point | IC50 ([1]; chloroquine-sensitive strain NF54, blood stages, H, N-pivaloylpiperazinyl) | IC50 at 72 h [2] | stage specific activity [5] | resistance development [6] | resistance development ([6]; listed as MMV030666) | IC50 [7] |
| --- | --- | --- | --- | --- | --- | --- | --- | --- | --- | --- | --- |
| CC(C)(C)OC(=O)N1CCN(c2ccccc2NC(=O)c2cccc(C(F)(F)F)c2Oc2ccc(F)cc2)CC1 [Compound 1, tert-Butyl-4-{2-[2-(4-fluorophenoxy)-3-(trifluoromethyl)benzamido]phenyl}piperazine-1-carboxylate] | 0.413 µM | 2.37 ×10⁻⁶ cm/s | 87% |  |  |  | 131 µM | peak activity in sub-micromolar concentrations on late stage trophozoites | did neither acquire resistances, nor cross-resistances | development of resistant parasites could not be observed |  |
| O=CN1CCN(c2ccccc2NC(=O)c2cccc(C(F)(F)F)c2Oc2ccc(F)cc2)CC1 [Compound 18, 2-(4-Fluorophenoxy)-N-[2-(4-formylpiperazin-1-yl)phenyl]-3-(trifluoromethyl)benzamide] | 6.58 to 15.6 µM | 1.05 ×10⁻⁶ cm/s | 82% | 6.58 µM |  |  | 31.8 to 35.4 µM |  |  |  | 31.8 µM |
| CC(C)(C)C(=O)N1CCN(c2ccc(NC(=O)c3cccc(C(F)(F)F)c3Oc3ccc(F)cc3)cc2)CC1 [Compound 39, N-{4-[4-(2,2-Dimethylpropanoyl)piperazin-1-yl]phenyl}-2-(4-fluorophenoxy)-3-(trifluoromethyl)benzamide] |  | 0.24 ×10⁻⁶ cm/s | 89% | 0.58 µM |  | 0.269 µM | 78 to 99.6 µM |  |  |  | 99.6 µM |
| CC(C)(C)C(=O)N1CCN(c2ccccc2NC(=O)c2cccc(C(F)(F)F)c2Oc2ccccc2)CC1 [Compound 56, N-{2-[4-(2,2-Dimethylpropanoyl)piperazin-1-yl]phenyl}-2-phenoxy-3-(trifluoromethyl)benzamide] | 0.617 to 0.659 µM | 0.11 ×10⁻⁶ cm/s |  | 0.659 µM |  |  | 185 to 190 µM |  |  |  | 190 µM |

The next lines start with results.

| IC50 [1, 8] | Papp at 5 h, 200 µM [3] | inhibition at 10 min, 20 µM [4] | IC50 [1, 9] | melting point | IC50 ([1]; chloroquine-sensitive strain NF54, blood stages, H, N-pivaloylpiperazinyl) | Structure (SMILES) | IC50 at 72 h [2] | stage specific activity [5] | resistance development [6] | resistance development ([6]; listed as MMV030666) | IC50 [7] |
| --- | --- | --- | --- | --- | --- | --- | --- | --- | --- | --- | --- |
| 0.617 to 0.659 µM | 0.23 ×10⁻⁶ cm/s | 94% | 0.617 µM |  |  | CC(C)(C)C(=O)N1CCN(c2ccccc2NC(=O)c2cccc(C(F)(F)F)c2Oc2ccc(F)cc2)CC1 [Compound 19, N-{2-[4-(2,2-Dimethylpropanoyl)piperazin-1-yl]phenyl}-2-(4-fluorophenoxy)-3-(trifluoromethyl)benzamide] | 185 to 190 µM |  |  |  | 185 µM |
| 2.89 µM | 2.48 ×10⁻⁶ cm/s |  |  | 142 to 145 °C |  | CC(C)(C)N1CCN(c2ccccc2NC(=O)c2cccc(C(F)(F)F)c2Oc2ccc(F)cc2)CC1 [Compound 20, 2-(4-Fluorophenoxy)-N-[2-(4-tert-butylpiperazin-1-yl)phenyl]-3-(trifluoromethyl)benzamide] | 34.7 µM |  |  |  |  |
| 1.22 µM | 1.22 ×10⁻⁶ cm/s | 80% |  |  |  | CC(C)(C)OC(=O)N1CCN(c2ccc(NC(=O)c3cccc(C(F)(F)F)c3Oc3ccccc3)cc2)CC1 [Compound 54, tert-Butyl-4-{4-[2-phenoxy-3-(trifluoromethyl)benzamido]phenyl}piperazine-1-carboxylate] | 124 µM |  |  |  | 185 µM |

Source: PMC8625693, “Synthesis and Structure-Activity Relationships of New 2-Phenoxybenzamides with Antiplasmodial Activity” (Pharmaceuticals, 2021)
